# Data as given in patent US12606561B2, “Substituted pyrazolo[1,5-a][1,3,5]triazines as CDK inhibitors” (QURIENT CO., LTD., priority 2018, dated 2026).
# Key:
# CDK7/Cyclin H/MNAT1 = biological target: T1, CDK7/Cyclin H/MNAT1 (Homo sapiens, UniProt P50613); test: Enzymatic assay for CDK7 (LANCE Ultra kinase assay, FRET based); type: biochemical; conditions: for IC50: ATP at Km
# T1 construct: purchased Invitrogen PR6749B
# Outline: (§1)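 With ATP set at its Km, compounds were tested against purified CDK/cyclin complexes phosphorylating a ULight-labeled peptide. Signal came from FRET between the peptide and a Europium-labeled anti-phospho-antibody.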
# CDK5/p25 = biological target: T2, CDK5/p25 (Homo sapiens, UniProt Q00535); test: Enzymatic assay for CDK5 (LANCE Ultra kinase assay, FRET based); type: biochemical; conditions: ATP at Km
# T2 construct: purchased Invitrogen PR8543B
# Outline: (§2)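 Compounds tested as 8 doses in 4-fold steps against CDK2/Cyclin A ([…]) or CDK5/p25 ([…]), with ATP at its Km and 68 nM ULight-MBP substrate. After 60 min at 23° C., EDTA plus Eu-labelled anti-phospho-MBP added; TR-FRET (615/665 nm) read after another 60 min.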
# MV4-11 = test: Cellular MV4-11 viability assay (CellTiter-Glo, 72 hours); type: cell-based; conditions: Homo sapiens; MV4-11 cells
# Experimental: Human […] cell line, MV4-11_(ATCC, Cat #CRL-9591), NSCLC (Non-small cell lung cancer) cell line H460 (ATCC, Cat #HTB-177), A2780 (ECACC, Cat #93112519) and OVCAR-3(ATCC, Cat #HTB-161) were obtained from ATCC. Cells were grown in RPMI-1640 media (Invitrogen, Cat #22400-089) supplemented with 10% FBS (Invitrogen, Cat #10099141) and 1% penicillin/streptomycin (Invitrogen, Cat #15070063) and cultured at 37° C., 5% CO2 in a humidified chamber. All cell lines were routinely tested for mycoplasma.
# To effect of the CDK7 inhibitor to inhibit the growth of target cancer cells, viability assay were conducted a 72 hour time period. Briefly, the candidate cell line was plated in 96 well plate at the following density of cells respectively. 1×10^4 cells/well for MV4-11, 5×10^3 for H460 and OVCAR-3, and 1×10^3 for A2780. After 24 hours, the cells were treated with various concentrations of the compound (ranging from 0.0015 uM to 10 uM). DMSO solvent without compound served as a control and final DMSO concentration lest than 0.1%. After 72 hours of incubation at 37° C., 5% CO2 incubator, cells were analyzed for the viability using the CellTiter-Glo Luminescent Cell Viability Assay (Promega, Cat #G7570). All viability assays were performed in duplicate and Luminescence was read using an Envision (Perkin Elmer, USA). Data was analyzed using XLfit software.
# CDK1/Cyclin B = biological target: T3, CDK1/Cyclin B (Homo sapiens, UniProt P06493); test: Enzymatic assay for CDK1 (LANCE Ultra kinase assay, FRET based); type: biochemical; conditions: ATP at Km; read-out: CDK1 enzymatic activity IC50
# T3 construct: purchased Invitrogen PR4768C
# Outline: as §1
# A2780 = A2780 viability assay (CellTiter-Glo, 72 hours); type: cell-based; conditions: Homo sapiens; A2780 cells
# Outline: (§3)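 After a 24 h attachment period, cells received a 0.0015–10 uM compound titration and were incubated 72 h at 37° C, 5% CO2. Viability came from CellTiter-Glo luminescence measured in duplicate.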
# CDK2/Cyclin A = biological target: T4, CDK2/Cyclin A (Homo sapiens, UniProt P24941); test: Enzymatic assay for CDK2 (LANCE Ultra kinase assay, FRET based); type: biochemical; conditions: ATP at Km
# T4 construct: purchased Invitrogen PV6290
# Outline: as §2
# OVCAR-3 = OVCAR-3 viability assay (CellTiter-Glo, 72 hours); type: cell-based; conditions: Homo sapiens; OVCAR-3 cells
# Outline: as §3
# T1 sequence (P50613 whole entry): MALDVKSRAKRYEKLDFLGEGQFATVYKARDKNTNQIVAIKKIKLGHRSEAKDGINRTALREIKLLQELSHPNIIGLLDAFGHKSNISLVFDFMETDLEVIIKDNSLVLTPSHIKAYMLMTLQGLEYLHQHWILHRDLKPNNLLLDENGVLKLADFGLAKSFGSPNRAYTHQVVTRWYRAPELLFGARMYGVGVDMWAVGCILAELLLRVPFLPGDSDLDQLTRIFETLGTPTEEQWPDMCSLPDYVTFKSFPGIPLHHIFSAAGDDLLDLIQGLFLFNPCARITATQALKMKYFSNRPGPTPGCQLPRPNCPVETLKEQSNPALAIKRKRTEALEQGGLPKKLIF
# T1 sequence (P51946 whole entry partner): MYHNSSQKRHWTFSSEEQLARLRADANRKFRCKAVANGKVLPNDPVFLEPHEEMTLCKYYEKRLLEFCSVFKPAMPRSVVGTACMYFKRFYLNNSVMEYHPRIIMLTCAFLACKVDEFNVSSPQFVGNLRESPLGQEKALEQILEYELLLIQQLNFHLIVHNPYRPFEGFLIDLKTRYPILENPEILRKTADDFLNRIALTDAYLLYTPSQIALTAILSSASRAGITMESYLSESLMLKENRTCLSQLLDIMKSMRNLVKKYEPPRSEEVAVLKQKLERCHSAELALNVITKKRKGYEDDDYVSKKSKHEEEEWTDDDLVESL
# T1 sequence (P51948 whole entry partner): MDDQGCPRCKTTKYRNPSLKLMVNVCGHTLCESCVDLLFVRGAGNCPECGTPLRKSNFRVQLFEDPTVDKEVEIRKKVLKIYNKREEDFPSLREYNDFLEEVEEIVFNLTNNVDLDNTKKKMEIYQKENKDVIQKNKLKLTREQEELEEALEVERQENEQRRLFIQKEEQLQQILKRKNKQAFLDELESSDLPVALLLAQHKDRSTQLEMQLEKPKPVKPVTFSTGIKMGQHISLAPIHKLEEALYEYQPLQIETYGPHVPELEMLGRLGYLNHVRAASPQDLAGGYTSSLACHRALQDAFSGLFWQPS
# T3 sequence (P06493 whole entry): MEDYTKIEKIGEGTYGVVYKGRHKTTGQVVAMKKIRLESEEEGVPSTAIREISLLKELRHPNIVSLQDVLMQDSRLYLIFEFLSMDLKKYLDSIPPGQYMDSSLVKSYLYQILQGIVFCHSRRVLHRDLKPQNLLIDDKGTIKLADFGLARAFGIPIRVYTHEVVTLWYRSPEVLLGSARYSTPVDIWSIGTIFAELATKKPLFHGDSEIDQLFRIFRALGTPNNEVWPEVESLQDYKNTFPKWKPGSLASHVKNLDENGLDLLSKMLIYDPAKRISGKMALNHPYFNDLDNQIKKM
# T3 sequence (P14635 whole entry partner): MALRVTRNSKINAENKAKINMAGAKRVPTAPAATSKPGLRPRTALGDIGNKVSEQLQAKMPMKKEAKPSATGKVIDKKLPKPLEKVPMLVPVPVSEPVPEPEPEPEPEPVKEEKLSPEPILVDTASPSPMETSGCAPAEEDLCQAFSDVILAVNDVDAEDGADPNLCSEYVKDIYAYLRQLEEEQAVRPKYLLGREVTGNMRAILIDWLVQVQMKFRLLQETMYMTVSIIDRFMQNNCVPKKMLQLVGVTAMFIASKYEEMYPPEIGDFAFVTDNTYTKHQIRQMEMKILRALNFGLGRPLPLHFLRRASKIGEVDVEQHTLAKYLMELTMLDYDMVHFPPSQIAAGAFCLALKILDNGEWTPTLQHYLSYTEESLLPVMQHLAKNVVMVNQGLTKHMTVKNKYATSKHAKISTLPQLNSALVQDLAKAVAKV
# T2 sequence (Q00535 whole entry): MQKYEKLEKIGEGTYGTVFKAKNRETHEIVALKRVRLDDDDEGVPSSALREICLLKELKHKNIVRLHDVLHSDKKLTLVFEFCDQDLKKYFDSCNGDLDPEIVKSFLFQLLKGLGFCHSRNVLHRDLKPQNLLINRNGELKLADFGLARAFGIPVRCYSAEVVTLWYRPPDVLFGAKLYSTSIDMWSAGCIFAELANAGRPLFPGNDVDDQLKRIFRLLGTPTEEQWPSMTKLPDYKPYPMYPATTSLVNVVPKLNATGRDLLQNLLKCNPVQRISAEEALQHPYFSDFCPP
# T2 sequence (Q15078 99-307 partner limits assumed): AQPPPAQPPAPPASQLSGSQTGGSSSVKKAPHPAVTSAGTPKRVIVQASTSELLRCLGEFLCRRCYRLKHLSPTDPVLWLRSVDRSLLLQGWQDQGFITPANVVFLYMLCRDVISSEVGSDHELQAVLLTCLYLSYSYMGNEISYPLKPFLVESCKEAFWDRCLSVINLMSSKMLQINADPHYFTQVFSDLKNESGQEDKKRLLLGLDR
Compound,IC50 (CDK7/Cyclin H/MNAT1) [µM],CDK1/CDK7: Selectivity of CDK7 inhibition over CDK1 inhibition (CDK7/Cyclin H/MNAT1),CDK2/CDK7: Selectivity of CDK7 inhibition over CDK2 inhibition (CDK7/Cyclin H/MNAT1),CDK5/CDK7: Selectivity of CDK7 inhibition over CDK5 inhibition (CDK7/Cyclin H/MNAT1),IC50 (CDK5/p25) [µM],IC50 (MV4-11) [µM],IC50 (CDK1/Cyclin B) [µM],IC50 (A2780) [µM],IC50 (CDK2/Cyclin A) [µM],IC50 (OVCAR-3) [µM]
CC(C)c1cnn2c(NCc3ccccc3-c3nccc4cc(NC(=O)/C=C/CN(C)C)ccc34)nc(NCC3CCNC(=O)C3)nc12 (racemic) [Compound 30],0.1 to 1,B (B indicates 50 < [fold] ≤ 500),B (B indicates 50 < [fold] ≤ 500),B (B indicates 50 < [fold] ≤ 500),> 1,< 1,> 1,< 1,> 1,< 1
CC(C)c1cnn2c(NCc3ccccc3-c3nccc4cc(NC(=O)/C=C/CN(C)C)ccc34)nc(N3CCC(O)C3)nc12 (racemic) [Compound 37],0.1 to 1,B (B indicates 50 < [fold] ≤ 500),B (B indicates 50 < [fold] ≤ 500),B (B indicates 50 < [fold] ≤ 500),> 1,< 1,> 1,< 1,> 1,< 1
CC(C)c1cnn2c(NCc3ccccc3-c3nccc4cc(NC(=O)/C=C/CN(C)C)ccc34)nc(N3CCCC(O)CC3)nc12 (racemic) [Compound 38],0.1 to 1,B (B indicates 50 < [fold] ≤ 500),B (B indicates 50 < [fold] ≤ 500),B (B indicates 50 < [fold] ≤ 500),> 1,< 1,> 1,< 1,> 1,< 1
CC(C)c1cnn2c(NCc3ccccc3-c3nccc4cc(NC(=O)/C=C/CN(C)C)ccc34)nc(NCCC3CNCCO3)nc12 (racemic) [Compound 51],< 0.1,A (A indicates [fold] > 500),A (A indicates [fold] > 500),A (A indicates [fold] > 500),> 1,< 1,> 1,< 1,> 1,< 1
CC(C)c1cnn2c(NCc3ccccc3-c3nccc4cc(NC(=O)/C=C/CN(C)C)ccc34)nc(NCC3CNCCO3)nc12 (racemic) [Compound 62],< 0.1,A (A indicates [fold] > 500),A (A indicates [fold] > 500),A (A indicates [fold] > 500),> 1,< 1,> 1,< 1,> 1,< 1
C=C(F)C(=O)Nc1ccc2c(-c3ccccc3CNc3nc(N[C@H]4CN5CCC4CC5)nc4c(C(C)C)cnn34)nccc2c1 [Compound 176],< 0.1,A (A indicates [fold] > 500),A (A indicates [fold] > 500),A (A indicates [fold] > 500),> 1,,> 1,< 1,> 1,< 1
C=C(F)C(=O)Nc1ccc2c(-c3ccccc3CNc3nc(OC4CCC(C)(C)NC4)nc4c(C(C)C)cnn34)nccc2c1 (centres unmarked) [Compound 177],< 0.1,A (A indicates [fold] > 500),A (A indicates [fold] > 500),A (A indicates [fold] > 500),> 1,,> 1,< 1,> 1,< 1
C=CC(=O)Nc1ccc2c(-c3ccccc3CNc3nc(NC4CCC(C)(C)NC4)nc4c(C(C)C)cnn34)nccc2c1 (centres unmarked) [Compound 178],< 0.1,A (A indicates [fold] > 500),A (A indicates [fold] > 500),A (A indicates [fold] > 500),> 1,,> 1,< 1,> 1,< 1
CC(C)c1cnn2c(NCc3ccccc3-c3nccc4cc(NC(=O)/C=C/CN(C)C)ccc34)nc(NC3CCC(C)(C)NC3)nc12 (centres unmarked) [Compound 179],< 0.1,A (A indicates [fold] > 500),A (A indicates [fold] > 500),A (A indicates [fold] > 500),> 1,,> 1,< 1,> 1,< 1
CC(C)c1cnn2c(NCc3ccccc3-c3nccc4cc(NC(=O)/C=C/CN5CCOCC5)ccc34)nc(NC3CCC(C)(C)NC3)nc12 (centres unmarked) [Compound 180],< 0.1,A (A indicates [fold] > 500),A (A indicates [fold] > 500),A (A indicates [fold] > 500),> 1,,> 1,< 1,> 1,< 1
C=C(C)C(=O)Nc1ccc2c(-c3ccccc3CNc3nc(NC4CCC(C)(C)NC4)nc4c(C(C)C)cnn34)nccc2c1 (centres unmarked) [Compound 181],< 0.1,A (A indicates [fold] > 500),A (A indicates [fold] > 500),A (A indicates [fold] > 500),> 1,,> 1,< 1,> 1,< 1
C=CC(=O)Nc1ccc2c(-c3ccccc3CNc3nc(Oc4cccnc4)nc4c(C(C)C)cnn34)nccc2c1 [Compound 182],0.1 to 1,B (B indicates 50 < [fold] ≤ 500),B (B indicates 50 < [fold] ≤ 500),B (B indicates 50 < [fold] ≤ 500),> 1,,> 1,< 1,> 1,1 to 10
